Source: patent US20260317320A1, “C5AR1 ANTAGONISTS AND USES THEREOF” (Vanqua Bio, Inc., priority 2022, published 2026)
Where two headings read alike, the source gives them in different places.

Tests used:
[1] = target: T1, complement C5a receptor 1 (C5aR1) (Homo sapiens, UniProt P21730); assay: β-arrestin recruitment via C5aR1 activation in live CHO-K1 cells (PathHunter), antagonist mode; assay type: cell-based; details: antagonist mode; recombinant hC5a (EC90) as competing natural agonist; live CHO-K1 cells; read-out: [Antagonist] B-arrestin2 recruitment: Average IC50
T1 construct: β-galactosidase fragment (PathHunter enzyme complementation); host or cells: CHO-K1 (PathHunter CHO-K1 C5aR1 β-arrestin cell line)
T1 sequence (P21730 1-350): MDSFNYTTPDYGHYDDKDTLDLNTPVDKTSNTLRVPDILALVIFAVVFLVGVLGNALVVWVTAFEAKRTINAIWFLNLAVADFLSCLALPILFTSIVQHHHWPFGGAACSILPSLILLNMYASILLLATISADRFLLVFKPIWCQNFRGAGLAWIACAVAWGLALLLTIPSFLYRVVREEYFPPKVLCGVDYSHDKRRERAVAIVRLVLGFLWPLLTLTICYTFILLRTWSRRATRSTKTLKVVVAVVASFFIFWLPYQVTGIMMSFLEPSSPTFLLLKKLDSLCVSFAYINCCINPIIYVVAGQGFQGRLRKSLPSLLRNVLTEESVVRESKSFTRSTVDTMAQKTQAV
Summary of the method: (§1)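 Live CHO-K1 cells expressing β-galactosidase fragments fused to β-arrestin and C5aR1; recruitment is read by fragment complementation. In agonist mode compounds are tested alone; in antagonist mode they compete against recombinant hC5a at EC90. IC50 reported in binned ranges.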

[2] = target: T1, complement C5a receptor 1 (C5aR1); assay: β-arrestin recruitment via C5aR1 activation in live CHO-K1 cells (PathHunter), agonist mode; assay type: cell-based
Summary of the method: as §1

IC50 [1] [nM]	[Agonist] B-arrestin2 recruitment: Average EC50 (nM) [2]	[Agonist] B-arrestin2 recruitment: Average EC50 (nM) ([2]; at 10 μM)	SMILES
< 500	Non-Active	–	Cc1ncc2cc([C@H]3CC[C@H](c4c(C)cccc4F)CC3)c(=O)n(Cc3ncccc3OC(F)(F)F)c2n1 [compound 198, 6-((1r,4r)-4-(2-Fluoro-6-methylphenyl)cyclohexyl)-2-methyl-8-((3-(trifluoromethoxy)pyridin-2-yl)methyl)pyrido[2,3-d]pyrimidin-7(8H)-one]
< 500	Non-Active	–	Cc1cnc2cc(C3CCN(c4c(C)ccnc4F)CC3)c(=O)n(Cc3ncccc3C(F)(F)F)c2n1 [compound 133, 7-(1-(2-Fluoro-4-methylpyridin-3-yl)piperidin-4-yl)-3-methyl-5-((3-(trifluoromethyl)pyridin-2-yl)methyl)pyrido[2,3-b]pyrazin-6(5H)-one]
< 500	Non-Active	–	Cc1cnc2cc(C3CCN(c4c(C)cccc4F)CC3)c(=O)n(Cc3nccnc3C(F)(F)F)c2n1 [compound 25, 7-(1-(2-Fluoro-6-methylphenyl)piperidin-4-yl)-3-methyl-5-((3-(trifluoromethyl)pyrazin-2-yl)methyl)pyrido[2,3-b]pyrazin-6(5H)-one]
500 to 5000	Non-Active	–	Cc1cnc2c(=O)n(C3CCN(c4c(C)cccc4F)CC3)c(=O)n(Cc3ncccc3C(F)(F)F)c2n1 [compound 50, 3-(1-(2-Fluoro-6-methylphenyl)piperidin-4-yl)-7-methyl-1-((3-(trifluoromethyl)pyridin-2-yl)methyl)pteridine-2,4(1H,3H)-dione]
500 to 5000	–	Non-Active at 10 μM	Cc1cnc2cc([C@H]3CC[C@H](c4c(C)nn(C)c4C)CC3)c(=O)n(Cc3ncccc3C(F)(F)F)c2n1 [compound 190, 3-Methyl-5-((3-(trifluoromethyl)pyridin-2-yl)methyl)-7-((1r,4r)-4-(1,3,5-trimethyl-1H-pyrazol-4-yl)cyclohexyl)pyrido[2,3-b]pyrazin-6(5H)-one]
< 500	–	Non-Active at 10 μM	Cc1cnc2cc([C@H]3CC[C@H](c4c(C)cccc4F)CC3)c(=O)n(Cc3ncccc3OCC(F)(F)F)c2n1 [compound 213, 7-((1r,4r)-4-(2-Fluoro-6-methylphenyl)cyclohexyl)-3-methyl-5-((3-(2,2,2-trifluoroethoxy)pyridin-2-yl)methyl)pyrido[2,3-b]pyrazin-6(5H)-one]
< 500	Non-Active	–	Cc1cnc2cc(C3CCN(c4c(C)ccnc4F)CC3)c(=O)n(Cc3ncccc3C(F)F)c2n1 [compound 141, 5-((3-(Difluoromethyl)pyridin-2-yl)methyl)-7-(1-(2-fluoro-4-methylpyridin-3-yl)piperidin-4-yl)-3-methylpyrido[2,3-b]pyrazin-6(5H)-one]
< 500	Non-Active	–	Cc1ccnc(F)c1N1CCC(c2cc3nccnc3n(Cc3nccnc3C(F)(F)F)c2=O)CC1 [compound 129, 7-(1-(2-Fluoro-4-methylpyridin-3-yl)piperidin-4-yl)-5-((3-(trifluoromethyl)pyrazin-2-yl)methyl)pyrido[2,3-b]pyrazin-6(5H)-one]
< 500	Non-Active	–	Cc1cnc2cc([C@H]3CC[C@H](c4c(C)cccc4F)CC3)c(=O)n(Cc3ncccc3OC3CC3)c2n1 [compound 238, 5-((3-Cyclopropoxypyridin-2-yl)methyl)-7-((1r,4r)-4-(2-fluoro-6-methylphenyl)cyclohexyl)-3-methylpyrido[2,3-b]pyrazin-6(5H)-one]
500 to 5000	Non-Active	–	Cc1c(C2CCN(c3cnccc3C(F)(F)F)CC2)c(=O)n(Cc2ncccc2F)c2nccnc12 [compound 86, 5-((3-Fluoropyridin-2-yl)methyl)-8-methyl-7-(1-(4-(trifluoromethyl)pyridin-3-yl)piperidin-4-yl)pyrido[2,3-b]pyrazin-6(5H)-one]
> 100000	Non-Active	–	COc1cnc2cc(C3CCN(c4c(C)cccc4F)CC3)c(=O)n(Cc3ncccc3C(F)(F)F)c2n1 [compound 54, 7-(1-(2-Fluoro-6-methylphenyl)piperidin-4-yl)-3-methoxy-5-((3-(trifluoromethyl)pyridin-2-yl)methyl)pyrido[2,3-b]pyrazin-6(5H)-one]
500 to 5000	Non-Active	–	COc1cnc2c(cc(C3CCN(c4c(C)cccc4F)CC3)c(=O)n2Cc2ncccc2C(F)(F)F)n1 [compound 65, 7-(1-(2-Fluoro-6-methylphenyl)piperidin-4-yl)-2-methoxy-5-((3-(trifluoromethyl)pyridin-2-yl)methyl)pyrido[2,3-b]pyrazin-6(5H)-one]

Continued, compound first:

SMILES	IC50 [1] [nM]	[Agonist] B-arrestin2 recruitment: Average EC50 (nM) [2]	[Agonist] B-arrestin2 recruitment: Average EC50 (nM) ([2]; at 10 μM)
Cc1cccc(F)c1N1CCC(c2cc3nccnc3n(Cc3cnccc3C(F)(F)F)c2=O)CC1 [compound 16, 7-(1-(2-Fluoro-6-methylphenyl)piperidin-4-yl)-5-((4-(trifluoromethyl)pyridin-3-yl)methyl) pyrido[2,3-b]pyrazin-6(5H)-one]	< 500	Non-Active	–
Cc1cccc(F)c1N1CCC(c2cc3nccnc3n(Cc3ccncc3C(F)(F)F)c2=O)CC1 [compound 17, 7-(1-(2-Fluoro-6-methylphenyl)piperidin-4-yl)-5-((3-(trifluoromethyl)pyridin-4-yl)methyl) pyrido[2,3-b]pyrazin-6(5H)-one]	500 to 5000	Non-Active	–
Cc1cnc2cc([C@@H]3CC[C@@H](c4c(C)cccc4F)C3)c(=O)n(Cc3nccnc3C)c2n1 [172D, 7-((1R,3R)-3-(2-Fluoro-6-methylphenyl)cyclopentyl)-3-methyl-5-((3-methylpyrazin-2-yl)methyl)pyrido[2,3-b]pyrazin-6(5H)-one]	5000 to 100000	–	Non-Active at 10 μM
Cc1cnc2cc([C@H]3CC[C@H](c4c(C)cccc4F)C3)c(=O)n(Cc3nccnc3C(F)(F)F)c2n1 [197B, 7-((1S,3S)-3-(2-Fluoro-6-methylphenyl)cyclopentyl)-3-methyl-5-((3-(trifluoromethyl)pyrazin-2-yl)methyl)pyrido[2,3-b]pyrazin-6(5H)-one]	500 to 5000	–	Non-Active at 10 μM
Cc1cnc2cc([C@H]3CC[C@H](c4c(C)ccnc4F)CC3)c(=O)n(Cc3ncccc3C(F)(F)F)c2n1 [147B, 7-((1r,4r)-4-(2-Fluoro-4-methylpyridin-3-yl)cyclohexyl)-3-methyl-5-((3-(trifluoromethyl)pyridin-2-yl)methyl)pyrido[2,3-b]pyrazin-6(5H)-one]	< 500	Non-Active	–
Cc1cnc2cc([C@H]3CC[C@@H](c4c(C)ccnc4F)CC3)c(=O)n(Cc3nccnc3C(F)F)c2n1 [146A, 5-((3-(Difluoromethyl)pyrazin-2-yl)methyl)-7-((1s,4s)-4-(2-fluoro-4-methylpyridin-3-yl)cyclohexyl)-3-methylpyrido[2,3-b]pyrazin-6(5H)-one]	5000 to 100000	–	Non-Active at 10 μM
Cc1cccc(F)c1N1CCC(c2cc3nccnc3n(Cc3nccnc3C)c2=O)CC1 [compound 20, 7-(1-(2-Fluoro-6-methylphenyl)piperidin-4-yl)-5-((3-methylpyrazin-2-yl)methyl)pyrido[2,3-b]pyrazin-6(5H)-one]	500 to 5000	Non-Active	–
Cc1cnc2cc([C@H]3CC[C@H](c4c(C)cccc4F)C3)c(=O)n(Cc3ncccc3C(F)(F)F)c2n1 [171C, 7-((1S,3S)-3-(2-Fluoro-6-methylphenyl)cyclopentyl)-3-methyl-5-((3-(trifluoromethyl)pyridin-2-yl)methyl)pyrido[2,3-b]pyrazin-6(5H)-one]	< 500	Non-Active	–
Cc1c(C2CCN(c3ccccc3C(F)(F)F)CC2)c(=O)n(Cc2ccccc2F)c2nccnc12 [compound 7, 5-(2-Fluorobenzyl)-8-methyl-7-(1-(2-(trifluoromethyl)phenyl)piperidin-4-yl)pyrido[2,3-b]pyrazin-6(5H)-one]	< 500	Non-Active	–
Cc1cnc2cc([C@H]3CC[C@H](c4c(C)cccc4F)CC3)c(=O)n([C@H]3CCC(F)(F)c4nccnc43)c2n1 [174A, 5-((S)-8,8-Difluoro-5,6,7,8-tetrahydroquinoxalin-5-yl)-7-((1r,4S)-4-(2-fluoro-6-methylphenyl)cyclohexyl)-3-methylpyrido[2,3-b]pyrazin-6(5H)-one]	5000 to 100000	–	Non-Active at 10 μM
Cc1cnc2cc([C@H]3CC[C@@H](c4c(C)cccc4F)C3)c(=O)n(Cc3ncccc3OC(F)F)c2n1 [175A, 5-((3-(Difluoromethoxy)pyridin-2-yl)methyl)-7-((1S,3R)-3-(2-fluoro-6-methylphenyl)cyclopentyl)-3-methylpyrido[2,3-b]pyrazin-6(5H)-one]	< 500	Non-Active	–
